The NIST ThermoML archive (doi:10.1021/je060288t)

Tests used:
[1] = xn = mol fraction of the nth substance listed; details: 101 kPa, Liquid; for viscosity: Capillary tube (Ostwald / Ubbelohde) method; for mass density: Pycnometric method
[2] = 101 kPa, Liquid; for viscosity: Capillary tube (Ostwald / Ubbelohde) method; for mass density: Pycnometric method

COCC(C)O (configuration not stated) [1-methoxy-2-propanol] + C=C(C)C(=O)O
[1], x1 = 1
Details	mass density [kg/m3]	viscosity [mPa·s]
298.15 K	915.9	1.707
308.15 K	907.1	1.306
318.15 K	896.9	1.069

COCC(C)O (configuration not stated) [1-methoxy-2-propanol] + C=C(C)C(=O)OCCO
[1], x1 = 1
Details	mass density [kg/m3]	viscosity [mPa·s]
298.15 K	915.9	1.707
308.15 K	907.1	1.306
318.15 K	896.9	1.069

C=C(C)C(=O)OCc1ccccc1 [benzyl methacrylate]
[2]
Details	mass density [kg/m3]	viscosity [mPa·s]
298.15 K	1034.7	2.302
308.15 K	1025.8	1.885
318.15 K	1017	1.58

COCC(C)O (configuration not stated) [1-methoxy-2-propanol] + C=C(C)C(=O)OCc1ccccc1
[1], x1 = 1
Details	mass density [kg/m3]	viscosity [mPa·s]
298.15 K	915.9	1.707
308.15 K	907.1	1.306
318.15 K	896.9	1.069

C=C(C)C(=O)O [2-methyl-2-propenoic acid] + COCC(C)O
[1]
Details	mass density, 298.15 K [kg/m3]	mass density, 308.15 K [kg/m3]	mass density, 318.15 K [kg/m3]	viscosity, 298.15 K [mPa·s]	viscosity, 308.15 K [mPa·s]	viscosity, 318.15 K [mPa·s]
x2 = 0	1009.5	999.4	989.2	1.267	1.078	0.945
x2 = 0.1	1000.9	991.8	982.4	1.376	1.163	1.002
x2 = 0.2	992	983.2	974.2	1.659	1.372	1.157
x2 = 0.3	983.5	974.9	966.1	1.982	1.577	1.312
x2 = 0.4	975.3	966.5	957.5	2.124	1.702	1.394
x2 = 0.5	966.6	957.8	948.9	2.233	1.762	1.429
x2 = 0.6	957.5	948.7	940.2	2.255	1.77	1.432
x2 = 0.7	947.3	938.6	930.3	2.14	1.685	1.361
x2 = 0.8	936.9	928.3	919.9	1.969	1.554	1.258
x2 = 0.9	926.2	917.8	909.1	1.809	1.431	1.165

COCC(C)O (configuration not stated) [1-methoxy-2-propanol]
[2]
Details	mass density [kg/m3]	viscosity [mPa·s]
298.15 K	915.9	1.707
308.15 K	907.1	1.306
318.15 K	896.9	1.069

C=C(C)C(=O)O [2-methyl-2-propenoic acid]
[2]
Details	mass density [kg/m3]	viscosity [mPa·s]
298.15 K	1009.5	1.267
308.15 K	999.4	1.078
318.15 K	989.2	0.945

C=C(C)C(=O)OCCO [2-hydroxyethyl 2-methyl-2-propenoate]
[2]
Details	mass density [kg/m3]	viscosity [mPa·s]
298.15 K	1067.1	5.784
308.15 K	1057.7	4.194
318.15 K	1048.6	3.181

C=C(C)C(=O)OCc1ccccc1 [benzyl methacrylate] + COCC(C)O
[1]
Details	mass density, 298.15 K [kg/m3]	mass density, 308.15 K [kg/m3]	mass density, 318.15 K [kg/m3]	viscosity, 298.15 K [mPa·s]	viscosity, 308.15 K [mPa·s]	viscosity, 318.15 K [mPa·s]
x2 = 0	1034.7	1025.8	1017	2.302	1.885	1.58
x2 = 0.1	1026.8	1018.1	1009.5	2.194	1.806	1.52
x2 = 0.2	1018.6	1010.1	1001.4	2.09	1.716	1.441
x2 = 0.3	1009.8	1001.4	992.5	1.99	1.628	1.364
x2 = 0.4	1000.2	991.8	982.8	1.895	1.538	1.291
x2 = 0.5	989.7	981.3	972.2	1.8	1.465	1.228
x2 = 0.6	978.1	969.7	960.5	1.731	1.406	1.166
x2 = 0.7	965.2	956.8	947.5	1.677	1.354	1.115
x2 = 0.8	950.9	942.3	932.7	1.633	1.312	1.084
x2 = 0.9	934.6	925.9	916	1.64	1.308	1.077

C=C(C)C(=O)OCCO [2-hydroxyethyl 2-methyl-2-propenoate] + COCC(C)O
[1]
Details	mass density, 298.15 K [kg/m3]	mass density, 308.15 K [kg/m3]	mass density, 318.15 K [kg/m3]	viscosity, 298.15 K [mPa·s]	viscosity, 308.15 K [mPa·s]	viscosity, 318.15 K [mPa·s]
x2 = 0	1067.1	1057.7	1048.6	5.784	4.194	3.181
x2 = 0.1	1055.2	1046.2	1037.8	5.12	3.747	2.869
x2 = 0.2	1042.8	1034.1	1025.5	4.607	3.408	2.623
x2 = 0.3	1029.9	1021.2	1012.6	4.13	3.065	2.373
x2 = 0.4	1016.3	1007.5	998.9	3.656	2.757	2.148
x2 = 0.5	1001.7	993	984.4	3.256	2.477	1.947
x2 = 0.6	986.2	977.6	969	2.869	2.208	1.753
x2 = 0.7	969.8	961.5	952.8	2.496	1.944	1.559
x2 = 0.8	952.7	944.5	935.5	2.208	1.73	1.395
x2 = 0.9	934.8	926.6	917.3	1.933	1.528	1.237
